Measured values from patent EP3964204A1, “LSD1 INHIBITORS FOR USE IN THE TREATMENT AND PREVENTION OF FIBROSIS OF TISSUES” (Université d'Aix-Marseille, priority 2020, dated 2022).

Legend:
[1] = molecular target: T1, LSD1 (Mus musculus, UniProt Q6ZQ88); assay: Cardiac LSD1 activity in explanted hearts at end of treatment (Epigentec kit); type: in vivo, mice; conditions: 1.5 mg / Kg intragastric gavage from 10 days after experimental infarction for three weeks, Figure 1
T1 construct: from tissue; host or cells: explanted hearts of C57BL/6 mice
Experimental: The LSD1 inhibitor (1.5 mg / Kg) was administered by intragastric gavage 10 days after experimental infarction and for three weeks. Losartan (5mg/kg) was also administered by oral gavage one week after experimental infarction and for three weeks,
The severity of the infarction was assessed by echocardiography 10 days after surgery. LSD1 activity was measured at the end of treatment (Epigentec kit) in explanted hearts. […] The ventricular wall has thickened when compared to the group treated with losartan Student -t-test ** p≤ 0.001 (Figure 2 B). Left ventricular function has improved. • 2- Ischemia -reperfusion model : transient ligation of descending anterior left coronary (30 min); followed by reperfusion

[2] = test system: C57BL/6 adult mice; assay: Permanent infarction model (permanent ligation of descending anterior left coronary, no reperfusion); type: in vivo
Experimental: (§1) Both groups were subjected to experimental infarction. A control group received no treatment. Two myocardial infraction models were used, respectively a permanent infarction model and an ischemia -reperfusion model. The LSD1 inhibitor (1.5 mg / Kg) was administered by intragastric gavage 10 days after experimental infarction and for three weeks. Losartan (5mg/kg) was also administered by oral gavage one week after experimental infarction and for three weeks, • 1: experimental infarctus : • 2.: 10 days later: control echo : pretreatment echo: • 3: posttreatment echo one month later The severity of the infarction was assessed by echocardiography 10 days after surgery. LSD1 activity was measured at the end of treatment ([…] kit) in explanted hearts. […] The ventricular wall has thickened when compared to the group treated with losartan Student -t-test ** p≤ 0.001 (Figure 2 B). Left ventricular function has improved. • 2- Ischemia -reperfusion model : transient ligation of descending anterior left coronary (30 min); followed by reperfusion

[3] = test system: C57BL/6 adult mice; assay: Ischemia-reperfusion model (transient ligation of descending anterior left coronary 30 min, then reperfusion); type: in vivo
Experimental: as §1, with “by reperfusion The results were similar in the ischemia / reperfusion model. […] Student -t-test **p≤ 0.001 The shortening fraction (SF) is an index of contractile activity : the contraction of the walls of ventricle is responsible of the shortening of the distance between each wall. This is calculated by dividing the distance between the walls at diastole minus the distance between the walls at systole by the distance between the walls at diastole (in %) Shortening fraction x Volume of chamber = ejection fraction (% of the chamber volume emptied at each contraction)” for “by reperfusion”

`Cl.Cl.c1ccc([C@@H]2C[C@H]2NC2CCNCC2)cc1` [GSK-LSD1, N-[(1R,2S)-2-phenylcyclopropyl]piperidin-4-amine dihydrochloride] was tested, and the “cardiac LSD1 activity” value [1] was “significantly reduced”, the Left ventricular function ([2]; 1.5 mg / Kg gavage, three weeks) was “has improved” and the “left ventricular wall thickness” value ([2]; 1.5 mg / Kg gavage, three weeks, compared to the group treated with losartan, p≤ 0.001, Figure 2 B) was “has thickened”. For the same molecule, the “myocardial fibrosis area (left ventricle : LV)” value ([2]; 1.5 mg / Kg intragastric gavage from 10 days after infarction for three weeks, compared to Losartan (5mg/kg), Figure 2 A) was “significantly reduced fibrosis”, the “myocardial fibrosis area (LV)” value ([3]; ischemia / reperfusion, 1.5 mg / Kg gavage, three weeks, compared with the non treated group, p≤ 0.001, Figure 3 A) was “prevented fibrosis” and the Left ventricular function ([3]; ischemia / reperfusion, M-mode echocardiography, compared to non-treated group and pretreatment, p≤ 0.001, Figure 3 B) was “fully restored left ventricular function”. For the same molecule, the “shortening fraction (SF)” value ([3]; post administration, normal SF in healthy mice 60%, post infarct 20%) was 60%.
